Data as given in US9974773B2, “Stabilized oxymetazoline formulations and their uses” (Allergan, Inc., priority 2014, dated 2018).
Where “and” joins values, the source holds several entries; their conditions need not be identical. Equal values may be shown once. Where a name gives a salt, the structure may show the parent alone. Read-outs that look alike come from different tables or passages of the source.

Assays:
[1] = Plasma oxymetazoline pharmacokinetics after dermal administration; type: in vivo; conditions: human, topical or ocular, repeated dermal administration, once-daily or twice-daily, read-out: effective half-life (mean), range across groups
Procedure: Blood samples were drawn on days 1 and 28 at predose, 2, 4, 6, 8, 10, and 12 hours after the morning dose throughout the study. Additional trough samples were collected on days 2, 14, and 29. The final pharmacokinetic sample was collected on day 35 after all assessments were completed. Plasma was analyzed for oxymetazoline concentrations using a validated liquid chromatography-tandem mass spectrometry method with a lower limit of quantification of 10 pg/mL.
Noncompartmental analysis was performed to determine the maximum observed plasma concentration (Cmax), corresponding time to reach maximum observed plasma concentration (Tmax), area under the plasma concentration-time curve from time 0 to time t (AUC0-t), accumulation ratio (R0), and effective half-life (Teff) of oxymetazoline in plasma. These parameters were calculated, whenever possible. […]
At the selected timepoints, approximately 6 mL of blood was collected into prelabeled K2EDTA lavender top blood collection tubes and gently inverted at least 10 times to ensure adequate mixing of blood and anticoagulant. […] A minimum of 1.0 mL of the harvested plasma was transferred into 2 prelabeled cryovials and stored at −20° C. or below until analyzed. The samples were analyzed using a validated high performance liquid chromatography-tandem mass spectrometry (LC-MS/MS) method with a lower limit of quantitation (LLOQ) of 10 pg/mL. […]

[2] = tested on: patients with moderate to severe facial erythema associated with rosacea; type: in vivo; conditions: for Discontinued: Adverse Event: mITT
Procedure: An adverse event could therefore be any unfavorable and unintended sign (including an abnormal laboratory finding), symptom, or disease temporally associated with the use of a medicinal (investigational) product, whether or not related to the medicinal (investigational) product. In addition, during the screening period, adverse events were assessed regardless of the administration of a pharmaceutical product.
A clinical determination was made of the intensity of an adverse event. The severity assessment for a clinical adverse event was completed using the following definitions as guidelines:
A determination was made of the relationship (if any) between an adverse event and the study drug or study procedure, as applicable. A causal relationship was present if a determination was made that there was a reasonable possibility that the adverse event may have been caused by the drug or study procedure.
Adverse events were coded using preferred terms and primary System Organ Class (SOC) from the Medical Dictionary for Regulatory Activities (MedDRA), version 15.1. Adverse events were collected both for the screening/baseline period (which were referred to as pretreatment adverse events [PTAEs]) and for the study period after treatment was initiated (which were referred to as postbaseline adverse events; ie, adverse events with start date from study day 1 through study exit). A treatment emergent adverse event (TEAE) was defined a postbaseline adverse event where there was no PTAE of the same MedDRA preferred term or the maximum severity during the postbaseline period was more severe than the maximal severity of any PTAE of the same MedDRA preferred term.
For each preferred term, the incidence of TEAEs was presented and summarized on a per-patient basis as follows: • by preferred term in descending order of incidence rate • by primary SOC in alphabetical order, and preferred term • by primary SOC in alphabetical order, preferred term, and severity (maximum severity)
The maximum severity of a TEAE experienced by a patient was determined by the most severe rating recorded on the eCRF for the patient's given TEAE. The incidence of TEAEs was provided for all TEAEs regardless of causality and for treatment-related TEAEs.

[3] = tested on: patients with moderate to severe facial erythema associated with rosacea; assay: Facial dermal tolerability assessment; type: in vivo, human
Procedure: Facial dermal tolerability assessment included the investigator's assessments (dryness and scaling of the treatment area) and the patient's assessments (stinging/burning and pruritus [itching] of skin in the application area) as described below:
Facial dermal tolerability assessment were evaluated by investigators and patients on days 1 (pre-dose, hours 1, 2, 4, 6, 8, 10, and 12), 2 (predose), 14 (predose, hours 1, 2, 4, 6, 8, 10, and 12), 28 (pre-dose, hours 1, 2, 4, 6, 8, 10, and 12), 35, and 56. Investigator's assessments included dryness and scaling and patient's assessment included stinging/burning, and pruritus; each had 4-point scales: 0=none, 1=mild, 2=moderate, 3=severe.
The number and percent of patients with at least a 1 severity increase (worsening) from baseline for 1 or more visits was generated by treatment group for day 1, day 14, day 28, and from day 1 through day 28. Raw values were summarized using shift tables and frequency distributions by treatment group. In addition, analyses of raw values and change from baseline at post-baseline timepoints and visits were performed using descriptive statistics. Baseline was the pre-dose assessment on day 1.

[4] = all oxymetazoline-treated patients

SMILES: Cc1cc(C(C)(C)C)c(O)c(C)c1CC1=NCCN1 [Oxy, oxymetazoline hydrochloride]
- half-life [1]: 1080 to 1680 min
- Discontinued: Adverse Event ([2]; BID): 6 (4.4) Number (%) of Patients
- Discontinued: Adverse Event ([2]; QD): 2 (1.5) Number (%) of Patients
- patients who discontinued due to treatment-related application site adverse events ([2]; all Oxy-treated patients): Seven and 7 patients
- patients with application site acne (TEAE) ([2]; all Oxy-treated patients): 1.50%
- patients with contact dermatitis (TEAE) ([2]; all Oxy-treated patients): 2.6%
- patients with severe treatment-related application site events ([2]; all Oxy-treated patients, 7 severe events): 3 patients
- patients who discontinued the study due to TEAEs [2, 4]: 8 patients
- patients with headache (TEAE) [2, 4]: 4.9%
- patients with treatment-related application site adverse events [2, 4]: 28 patients
- patients with TEAEs ([2]; once-daily dosing): 33.8%
- patients with adverse events during the posttreatment period ([2]; once-daily dosing): 8.3%
- patients with adverse events during the treatment period ([2]; once-daily dosing): 28.6%
- patients with treatment-related TEAEs ([2]; once-daily dosing): 9.8%
- patients with discontinuation from the study due to adverse events ([2]; once-daily group): 1.5%
- patients who discontinued the study ([2]; once-daily treatment groups): 3.0%
- patients with TEAEs ([2]; twice-daily dosing): 32.6%
- patients with adverse events during the posttreatment period ([2]; twice-daily dosing): 7.4%
- patients with adverse events during the treatment period ([2]; twice-daily dosing): 26.7%
- patients with treatment-related TEAEs ([2]; twice-daily dosing): 12.6%
- patients who discontinued the study due to adverse events ([2]; twice-daily group): 4.4%
- patients who discontinued the study ([2]; twice-daily treatment groups): 6.7%
- patients with worsening of stinging/burning at the application site ([3]; once-daily, day 1): 12.8%
- patients with worsening of stinging/burning at the application site ([3]; once-daily, day 14): 12.0%
- patients with worsening of stinging/burning at the application site ([3]; once-daily, day 28): 6.0%
- patients with worsening of stinging/burning at the application site ([3]; twice-daily, day 1): 10.4%
- patients with worsening of stinging/burning at the application site ([3]; twice-daily, day 14): 8.9%
- patients with worsening of stinging/burning at the application site ([3]; twice-daily, day 28): 1.5%
